Among the data in article PMC3768135 (Bioorganic & medicinal chemistry, 2013) are Ka and IC50 values, retold here.

For orientation: IC50 means the midpoint of a concentration-inhibition curve.

The target in assay [1] is T1, BsFtsZ (Bacillus subtilis, UniProt P17865).
T1 sequence (P17865 1-382): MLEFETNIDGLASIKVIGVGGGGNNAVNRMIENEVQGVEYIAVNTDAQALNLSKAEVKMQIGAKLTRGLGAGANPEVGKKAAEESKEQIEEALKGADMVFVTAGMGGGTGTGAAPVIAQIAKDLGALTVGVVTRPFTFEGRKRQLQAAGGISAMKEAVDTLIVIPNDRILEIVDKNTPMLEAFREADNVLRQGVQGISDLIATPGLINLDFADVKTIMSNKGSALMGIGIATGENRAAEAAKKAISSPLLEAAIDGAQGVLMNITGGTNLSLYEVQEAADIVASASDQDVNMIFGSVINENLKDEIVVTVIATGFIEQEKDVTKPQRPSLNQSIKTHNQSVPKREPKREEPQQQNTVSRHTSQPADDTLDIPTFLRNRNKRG
Put plainly: fluorescence anisotropy titration with FtsZ. Format: binding. (Polarisation of emitted light reports the rotation of a fluorescent probe.)

The target in assay [2] is EcFtsZ (Escherichia coli, UniProt P0A9A6). As to the kind of experiment: GTPase assay, malachite green phosphate detection. Format: biochemical.
Chain of EcFtsZ (P0A9A6 whole entry): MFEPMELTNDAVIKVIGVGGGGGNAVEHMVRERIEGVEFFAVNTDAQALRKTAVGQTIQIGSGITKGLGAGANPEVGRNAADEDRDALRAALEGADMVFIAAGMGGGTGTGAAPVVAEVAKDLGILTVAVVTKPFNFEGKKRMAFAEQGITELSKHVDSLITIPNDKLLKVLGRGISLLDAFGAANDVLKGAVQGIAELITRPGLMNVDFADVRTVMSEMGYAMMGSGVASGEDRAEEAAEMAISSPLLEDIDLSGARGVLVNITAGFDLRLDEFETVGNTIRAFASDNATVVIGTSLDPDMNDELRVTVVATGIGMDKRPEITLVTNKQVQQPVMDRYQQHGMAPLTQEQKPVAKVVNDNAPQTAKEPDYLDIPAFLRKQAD
Assay [3] has as its target SaFtsZ (Staphylococcus aureus, UniProt P0A031). Put plainly: GTPase assay, malachite green phosphate detection. Format: biochemical.

Chain of SaFtsZ (P0A031 whole entry): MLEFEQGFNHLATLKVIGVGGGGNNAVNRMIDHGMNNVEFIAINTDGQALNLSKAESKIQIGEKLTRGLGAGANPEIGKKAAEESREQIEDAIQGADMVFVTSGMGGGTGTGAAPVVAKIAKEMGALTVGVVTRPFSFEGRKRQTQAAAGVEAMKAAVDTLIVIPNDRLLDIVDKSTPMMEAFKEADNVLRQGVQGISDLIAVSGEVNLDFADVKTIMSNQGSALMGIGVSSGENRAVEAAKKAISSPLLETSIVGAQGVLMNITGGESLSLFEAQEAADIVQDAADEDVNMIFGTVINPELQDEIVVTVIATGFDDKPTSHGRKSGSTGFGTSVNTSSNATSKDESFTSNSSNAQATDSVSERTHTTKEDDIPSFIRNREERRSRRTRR

As for mant-GTP, the Ka entry in assay [1] is given as “(9.9 ± 0.5) × 10^5 (Ka) M^−1”. As to hemi-chrysophaentin [compound 2], the IC50 in assay [2] came to 37 ± 7 µM; in assay [3], 38 ± 9 µM.
